# Literature values in patent publication US20060252740A1 (priority 2005, published 2006).
# Key:
# [1] = tested on: patients with advanced malignancies incl. metastatic melanoma; settings: cited from earlier work
# [2] = tested on: patients with advanced solid tumors; settings: cited from earlier work
# [3] = highest dose level (450 mg/m^2)
smiles,measurement,setting,value
"C=CCNC1=C2C[C@@H](C)C[C@H](OC)[C@H](O)[C@@H](C)/C=C(\C)[C@H](OC(N)=O)[C@@H](OC)/C=C\C=C(/C)C(=O)NC(=CC1=O)C2=O [17-AAG, 17-Allylamino-17-demethoxygeldanamycin]",mean peak plasma level,[1]; 450 mg/m^2,"8,998 μg/L"
same,mean volume of distribution,[1]; 450 mg/m^2,142.6 L
same,induction of the co-chaperone protein Hsp70,[1]; 320-450 mg/m^2/week,8 of 9
same,CDK4 depletion in tumor biopsies,[1]; at 24 hours,8 out of 9
same,Raf-1 depletion in tumor biopsies,[1]; at 24 hours,4 out of 6
same,period plasma 17-AAG concentrations remained above 120 nM,[1]; [3],> 24 h
same,plasma 17-AAG concentrations,[1]; [3],exceeded 10 μM
same,complete or partial responses,[1]; in vivo,No complete or partial responses
same,dose at which dose limiting toxicity was observed,"[1]; once weekly, grade ¾ elevation of AST",450 mg/m^2/week
same,stable disease,[1]; patients treated at 320-450 mg/m^2,two showed radiologically documented long term stable disease
same,toxicities observed,[2]; dose of 395 mg/m^2,nausea and vomiting secondary to pancreatitis and grade 3 fatigue
same,17-AAG metabolized to 17-AG (metabolic clearance),[2]; population PK analysis,46.4%
same,"Vd (volume of distribution), central compartment",[2]; population PK analysis,24.2 L
same,"Vd (volume of distribution), peripheral compartment",[2]; population PK analysis,89.6 L
same,objective tumor responses,[2]; to date,No objective tumor responses
